The values below come from article PMC7200204 (Ecotoxicology and environmental safety, 2020).

The structures appear in SMILES notation. Converted amounts (≈) assume the structure as drawn.

This test relates to anti-1-NAP monoclonal antibody (mAb). The test can be described thus: ciELISA with the obtained mAb under optimized conditions. The following applies: for CR (cross-reactivity): CR (%) = [IC50 (NAP)/IC50 (cross-reactant)] × 100, n=3; for IC50: Table 2, optimized condition, n=3. It counts as binding, mouse.

Turning to `Oc1cc(O)c2ccccc2c1` [1,3-dihydroxy naphthalene], the “CR (cross-reactivity)” value is recorded as 6.9% and the IC50 turned out to be 0.178 µg/mL (≈ 1.11 µM).
Taken in the same sequence, the figures for `Oc1ccc(O)c2ccccc12` [1,4-dihydroxy naphthalene] were 6.2% and 0.2007 µg/mL (≈ 1.25 µM).
Taken in the same sequence, the figures for `Oc1cccc2c(O)cccc12` [1,5-dihydroxy naphthalene] were 14.3% and 0.0874 µg/mL (≈ 0.546 µM).
On the same counts, the results for `Oc1ccc2c(O)cccc2c1` [1,6-dihydroxy naphthalene] are 2.5% and 0.5028 µg/mL (≈ 3.14 µM).
On to `Oc1ccc2cccc(O)c2c1` [1,7-dihydroxy naphthalen], for which the “CR (cross-reactivity)” value stood at 1.4% and the IC50 amounted to 0.8817 µg/mL (≈ 5.5 µM).
On the same counts, the results for `Oc1cccc2cccc(O)c12` [1,8-dihydroxy naphthalene] are 0.3% and 4.3034 µg/mL (≈ 26.9 µM).
On the same counts, the results for `Oc1ccc2cc(O)ccc2c1` [2,6-dihydroxy naphthalene] are 0.4% and 2.8397 µg/mL (≈ 17.7 µM).
Taken in the same sequence, the figures for `CNC(=O)Oc1cccc2ccccc12` [Carbaryl] were 4.2% and 0.3007 µg/mL (≈ 1.49 µM).
For `Oc1cccc2ccccc12` [Hapten 1-naphthol, 1-naphthol], the “CR (cross-reactivity)” value amounted to 100% and the IC50 stood at 0.0125 µg/mL (≈ 0.0867 µM).
Regarding `Oc1ccc2ccccc2c1` [Hapten 2-naphthol, 2-naphthol], the “CR (cross-reactivity)” value amounted to 1.2% and the IC50 is 1.005 µg/mL (≈ 6.97 µM).
